Publication PMC9986241 (Signal Transduction and Targeted Therapy, 2023)

Assays:
Assay in all cases: KinaseProfiler enzyme profiling
Assay type in all cases: biochemical
IKKα(h) = target: T1, IKKα(h) (Homo sapiens, UniProt O15111)
T1 construct: purchased Eurofins KinaseProfiler
T1 sequence (O15111 1-745): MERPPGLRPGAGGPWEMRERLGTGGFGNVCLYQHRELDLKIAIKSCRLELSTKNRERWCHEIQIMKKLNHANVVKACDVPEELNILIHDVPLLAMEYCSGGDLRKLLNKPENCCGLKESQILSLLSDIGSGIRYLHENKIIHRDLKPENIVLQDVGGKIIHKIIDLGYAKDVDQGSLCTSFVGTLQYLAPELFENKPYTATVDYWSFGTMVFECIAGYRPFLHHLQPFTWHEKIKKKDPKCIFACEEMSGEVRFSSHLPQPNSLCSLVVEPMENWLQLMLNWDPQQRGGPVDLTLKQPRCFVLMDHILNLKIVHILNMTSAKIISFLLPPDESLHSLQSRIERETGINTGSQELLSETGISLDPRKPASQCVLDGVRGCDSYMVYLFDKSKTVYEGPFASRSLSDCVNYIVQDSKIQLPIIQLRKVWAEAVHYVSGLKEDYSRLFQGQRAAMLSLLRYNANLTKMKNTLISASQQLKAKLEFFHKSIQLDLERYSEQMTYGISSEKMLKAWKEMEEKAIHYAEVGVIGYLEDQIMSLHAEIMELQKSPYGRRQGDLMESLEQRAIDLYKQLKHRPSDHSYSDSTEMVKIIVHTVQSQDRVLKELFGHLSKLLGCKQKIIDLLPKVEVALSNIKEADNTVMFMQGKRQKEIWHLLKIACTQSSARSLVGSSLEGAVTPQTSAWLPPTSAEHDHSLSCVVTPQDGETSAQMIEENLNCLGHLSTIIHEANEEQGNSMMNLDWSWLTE
Experimental: (§1) Enzyme profiling services were provided by KinaseProfiler™ (Eurofin, Brussels, Belgium). The concentration of erianin was 100 nM, and total 70 kinases were tested in this in vitro screening and profiling services (2 repetitions). For more details, refer to the manufacturer’s instructions (www.eurofinsdiscoveryservices.com).

JNK3(h) = target: T2, JNK3(h) (Homo sapiens, UniProt P53779)
T2 construct: purchased Eurofins KinaseProfiler
Experimental: as §1

CDK4/cyclinD3(h) = target: T3, CDK4/cyclinD3(h) (Homo sapiens, UniProt P11802)
T3 construct: purchased Eurofins KinaseProfiler
Experimental: as §1

CaMKIV(h) = target: T4, CaMKIV(h) (Homo sapiens, UniProt Q16566)
T4 construct: purchased Eurofins KinaseProfiler
Experimental: as §1

JAK1(h) = target: T5, JAK1(h) (Homo sapiens, UniProt P23458)
T5 construct: purchased Eurofins KinaseProfiler
T5 sequence (P23458 whole entry): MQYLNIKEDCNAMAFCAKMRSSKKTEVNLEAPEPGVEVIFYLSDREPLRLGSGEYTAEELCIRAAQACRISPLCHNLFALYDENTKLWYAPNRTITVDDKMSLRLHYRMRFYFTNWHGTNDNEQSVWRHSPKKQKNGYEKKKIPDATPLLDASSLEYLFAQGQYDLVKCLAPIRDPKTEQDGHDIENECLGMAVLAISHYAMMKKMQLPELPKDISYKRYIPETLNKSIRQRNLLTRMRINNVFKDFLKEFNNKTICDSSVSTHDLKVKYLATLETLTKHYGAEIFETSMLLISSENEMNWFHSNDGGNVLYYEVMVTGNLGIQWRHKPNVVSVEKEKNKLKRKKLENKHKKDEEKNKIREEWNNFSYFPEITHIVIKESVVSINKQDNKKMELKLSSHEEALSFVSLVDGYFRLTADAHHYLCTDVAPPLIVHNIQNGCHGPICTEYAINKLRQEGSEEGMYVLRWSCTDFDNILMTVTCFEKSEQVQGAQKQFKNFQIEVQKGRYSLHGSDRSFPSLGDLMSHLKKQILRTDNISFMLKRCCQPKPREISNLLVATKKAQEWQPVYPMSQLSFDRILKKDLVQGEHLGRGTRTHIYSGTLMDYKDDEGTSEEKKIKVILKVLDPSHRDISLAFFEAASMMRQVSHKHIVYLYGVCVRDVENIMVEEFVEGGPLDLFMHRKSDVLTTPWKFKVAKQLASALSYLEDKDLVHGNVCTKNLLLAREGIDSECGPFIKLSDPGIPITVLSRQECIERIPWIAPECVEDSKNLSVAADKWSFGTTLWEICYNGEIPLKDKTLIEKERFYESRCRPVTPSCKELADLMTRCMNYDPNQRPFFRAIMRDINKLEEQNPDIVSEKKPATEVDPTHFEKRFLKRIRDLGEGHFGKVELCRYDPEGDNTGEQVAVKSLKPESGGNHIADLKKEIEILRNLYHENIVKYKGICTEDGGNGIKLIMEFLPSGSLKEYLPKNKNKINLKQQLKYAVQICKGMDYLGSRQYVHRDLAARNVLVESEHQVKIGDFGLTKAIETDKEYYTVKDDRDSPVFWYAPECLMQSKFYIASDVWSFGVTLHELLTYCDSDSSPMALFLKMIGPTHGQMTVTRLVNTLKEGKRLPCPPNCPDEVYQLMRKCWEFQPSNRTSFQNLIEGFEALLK
Experimental: as §1

CDK9/cyclin T1(h) = target: T6, CDK9/cyclin T1(h) (Homo sapiens, UniProt P50750)
T6 construct: purchased Eurofins KinaseProfiler
T6 sequence (P50750 whole entry): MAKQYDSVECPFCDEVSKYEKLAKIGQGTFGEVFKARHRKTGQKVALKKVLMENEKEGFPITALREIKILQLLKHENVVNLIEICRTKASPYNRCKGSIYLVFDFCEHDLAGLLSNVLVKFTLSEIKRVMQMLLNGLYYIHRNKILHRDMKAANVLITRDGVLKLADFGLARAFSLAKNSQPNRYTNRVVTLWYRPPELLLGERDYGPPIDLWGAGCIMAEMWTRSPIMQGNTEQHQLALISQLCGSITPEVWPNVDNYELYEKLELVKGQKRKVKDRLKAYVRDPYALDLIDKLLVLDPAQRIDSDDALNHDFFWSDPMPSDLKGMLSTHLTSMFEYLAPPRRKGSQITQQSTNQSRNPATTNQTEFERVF
T6 sequence (O60563 whole entry partner): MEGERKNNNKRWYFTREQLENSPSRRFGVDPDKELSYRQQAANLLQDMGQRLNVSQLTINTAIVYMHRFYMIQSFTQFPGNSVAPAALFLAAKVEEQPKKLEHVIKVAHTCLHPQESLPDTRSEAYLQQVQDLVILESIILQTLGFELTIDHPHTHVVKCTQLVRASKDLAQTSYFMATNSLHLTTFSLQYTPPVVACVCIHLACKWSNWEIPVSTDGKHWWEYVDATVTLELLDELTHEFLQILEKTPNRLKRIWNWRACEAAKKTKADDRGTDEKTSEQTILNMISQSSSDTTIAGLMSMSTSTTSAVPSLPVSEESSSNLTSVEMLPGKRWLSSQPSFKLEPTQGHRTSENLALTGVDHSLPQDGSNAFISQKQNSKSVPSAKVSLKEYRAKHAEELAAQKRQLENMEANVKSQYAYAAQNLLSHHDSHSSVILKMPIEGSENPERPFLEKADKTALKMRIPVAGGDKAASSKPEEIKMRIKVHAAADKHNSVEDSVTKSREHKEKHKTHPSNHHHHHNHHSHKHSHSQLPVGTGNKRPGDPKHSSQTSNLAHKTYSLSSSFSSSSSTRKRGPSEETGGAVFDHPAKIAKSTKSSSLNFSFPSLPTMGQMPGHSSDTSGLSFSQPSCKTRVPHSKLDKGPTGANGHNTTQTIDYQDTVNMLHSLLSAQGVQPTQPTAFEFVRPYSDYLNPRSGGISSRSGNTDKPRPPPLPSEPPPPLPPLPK
Experimental: as §1

ROCK-I(h) = target: T7, ROCK-I(h) (Homo sapiens, UniProt Q13464)
T7 construct: purchased Eurofins KinaseProfiler
Experimental: as §1

ROCK-II(h) = target: T8, ROCK-II(h) (Homo sapiens, UniProt O75116)
T8 construct: purchased Eurofins KinaseProfiler
Experimental: as §1

EGFR(L861Q)(h) = target: T9, EGFR(L861Q)(h) (Homo sapiens, UniProt P00533, L861Q)
T9 construct: purchased Eurofins KinaseProfiler
Experimental: as §1

MAPK2(h) = target: T10, MAPK2(h) (Homo sapiens, UniProt P28482)
T10 construct: purchased Eurofins KinaseProfiler
T10 sequence (P28482 whole entry): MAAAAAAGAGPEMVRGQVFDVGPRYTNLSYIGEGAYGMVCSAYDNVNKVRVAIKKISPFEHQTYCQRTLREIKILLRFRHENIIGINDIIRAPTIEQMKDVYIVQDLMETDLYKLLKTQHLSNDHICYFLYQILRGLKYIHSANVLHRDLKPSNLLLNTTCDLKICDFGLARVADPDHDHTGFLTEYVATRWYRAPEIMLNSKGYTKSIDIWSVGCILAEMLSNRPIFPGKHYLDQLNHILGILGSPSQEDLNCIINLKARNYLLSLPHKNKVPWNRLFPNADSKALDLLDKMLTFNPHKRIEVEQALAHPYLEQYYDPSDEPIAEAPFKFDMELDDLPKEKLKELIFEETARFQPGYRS
Experimental: as §1

AMPKα1(h) = target: T11, AMPKα1(h) (Homo sapiens, UniProt Q13131)
T11 construct: purchased Eurofins KinaseProfiler
Experimental: as §1

JAK3(h) = target: T12, JAK3(h) (Homo sapiens, UniProt P52333)
T12 construct: purchased Eurofins KinaseProfiler
Experimental: as §1

EGFR(T790M,L858R)(h) = target: T13, EGFR(T790M,L858R)(h) (Homo sapiens, UniProt P00533, L858R/T790M)
T13 construct: purchased Eurofins KinaseProfiler
Experimental: as §1

mTOR(h) = target: T14, mTOR(h) (Homo sapiens, UniProt P42345)
T14 construct: purchased Eurofins KinaseProfiler
Experimental: as §1

PAK1(h) = target: T15, PAK1(h) (Homo sapiens, UniProt Q13153)
T15 construct: purchased Eurofins KinaseProfiler
T15 sequence (Q13153 whole entry): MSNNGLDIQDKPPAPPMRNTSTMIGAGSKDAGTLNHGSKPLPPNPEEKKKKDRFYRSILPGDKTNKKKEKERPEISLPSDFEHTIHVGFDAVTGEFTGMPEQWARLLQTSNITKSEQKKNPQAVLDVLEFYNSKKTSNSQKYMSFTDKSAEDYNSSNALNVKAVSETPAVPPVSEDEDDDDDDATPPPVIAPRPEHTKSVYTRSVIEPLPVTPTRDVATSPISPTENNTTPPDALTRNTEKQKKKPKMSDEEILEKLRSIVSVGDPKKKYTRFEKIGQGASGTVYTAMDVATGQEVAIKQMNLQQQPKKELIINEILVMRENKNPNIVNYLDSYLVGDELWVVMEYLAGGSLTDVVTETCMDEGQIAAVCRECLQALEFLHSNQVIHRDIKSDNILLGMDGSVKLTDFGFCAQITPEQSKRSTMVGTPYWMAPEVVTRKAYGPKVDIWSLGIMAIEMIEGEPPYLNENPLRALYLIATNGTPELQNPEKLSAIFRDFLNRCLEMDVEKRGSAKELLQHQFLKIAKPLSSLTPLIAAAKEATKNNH
Experimental: as §1

PAK2(h) = target: T16, PAK2(h) (Homo sapiens, UniProt Q13177)
T16 construct: purchased Eurofins KinaseProfiler
T16 sequence (Q13177 whole entry): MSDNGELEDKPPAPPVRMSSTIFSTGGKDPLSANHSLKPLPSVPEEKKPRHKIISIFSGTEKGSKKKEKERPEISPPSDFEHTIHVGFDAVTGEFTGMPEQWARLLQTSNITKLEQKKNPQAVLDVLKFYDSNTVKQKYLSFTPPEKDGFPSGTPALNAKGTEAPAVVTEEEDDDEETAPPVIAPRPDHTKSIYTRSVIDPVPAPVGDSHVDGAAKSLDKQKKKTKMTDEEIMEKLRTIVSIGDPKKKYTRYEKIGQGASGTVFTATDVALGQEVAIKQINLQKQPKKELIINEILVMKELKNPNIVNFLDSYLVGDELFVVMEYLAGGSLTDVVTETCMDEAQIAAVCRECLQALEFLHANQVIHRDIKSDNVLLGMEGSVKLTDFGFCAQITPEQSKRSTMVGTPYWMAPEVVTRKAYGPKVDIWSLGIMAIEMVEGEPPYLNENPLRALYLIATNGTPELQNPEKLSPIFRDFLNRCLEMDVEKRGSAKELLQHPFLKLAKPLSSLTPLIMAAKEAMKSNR
Experimental: as §1

Pim-1(h) = target: T17, Pim-1(h) (Homo sapiens, UniProt P11309)
T17 construct: purchased Eurofins KinaseProfiler
T17 sequence (P11309 whole entry): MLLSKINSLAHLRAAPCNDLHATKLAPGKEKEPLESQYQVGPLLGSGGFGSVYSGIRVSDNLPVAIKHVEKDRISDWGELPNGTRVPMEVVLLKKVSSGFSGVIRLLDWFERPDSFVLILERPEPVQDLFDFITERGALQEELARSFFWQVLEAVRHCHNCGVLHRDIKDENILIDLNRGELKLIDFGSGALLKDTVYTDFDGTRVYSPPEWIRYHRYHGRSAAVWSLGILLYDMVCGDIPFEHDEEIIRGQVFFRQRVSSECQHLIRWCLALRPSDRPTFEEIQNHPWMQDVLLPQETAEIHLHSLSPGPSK
Experimental: as §1

c-RAF(h) = target: T18, c-RAF(h) (Homo sapiens, UniProt P04049)
T18 construct: purchased Eurofins KinaseProfiler
Experimental: as §1

PAK3(h) = target: T19, PAK3(h) (Homo sapiens, UniProt O75914)
T19 construct: purchased Eurofins KinaseProfiler
Experimental: as §1

MAPK1(h) = target: T20, MAPK1(h) (Homo sapiens, UniProt P27361)
T20 construct: purchased Eurofins KinaseProfiler
Experimental: as §1

MEK1(h) = target: T21, MEK1(h) (Homo sapiens, UniProt Q02750)
T21 construct: purchased Eurofins KinaseProfiler
T21 sequence (Q02750 whole entry): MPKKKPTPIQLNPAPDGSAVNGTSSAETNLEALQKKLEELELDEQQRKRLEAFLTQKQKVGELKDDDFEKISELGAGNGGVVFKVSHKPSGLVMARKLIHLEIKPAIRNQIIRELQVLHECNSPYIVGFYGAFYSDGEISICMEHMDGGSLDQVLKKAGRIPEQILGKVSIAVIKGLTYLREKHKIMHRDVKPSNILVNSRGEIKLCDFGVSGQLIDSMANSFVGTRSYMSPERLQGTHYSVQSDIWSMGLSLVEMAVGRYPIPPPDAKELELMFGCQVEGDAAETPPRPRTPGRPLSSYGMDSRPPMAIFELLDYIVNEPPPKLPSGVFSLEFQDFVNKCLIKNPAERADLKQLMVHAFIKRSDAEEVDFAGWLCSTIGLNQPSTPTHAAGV
Experimental: as §1

CDK2/cyclinA(h) = target: T22, CDK2/cyclinA(h) (Homo sapiens, UniProt P24941)
T22 construct: purchased Eurofins KinaseProfiler
Experimental: as §1

FAK(h) = target: T23, FAK(h) (Homo sapiens, UniProt Q05397)
T23 construct: purchased Eurofins KinaseProfiler
Experimental: as §1

PAK4(h) = target: T24, PAK4(h) (Homo sapiens, UniProt O96013)
T24 construct: purchased Eurofins KinaseProfiler
T24 sequence (O96013 whole entry): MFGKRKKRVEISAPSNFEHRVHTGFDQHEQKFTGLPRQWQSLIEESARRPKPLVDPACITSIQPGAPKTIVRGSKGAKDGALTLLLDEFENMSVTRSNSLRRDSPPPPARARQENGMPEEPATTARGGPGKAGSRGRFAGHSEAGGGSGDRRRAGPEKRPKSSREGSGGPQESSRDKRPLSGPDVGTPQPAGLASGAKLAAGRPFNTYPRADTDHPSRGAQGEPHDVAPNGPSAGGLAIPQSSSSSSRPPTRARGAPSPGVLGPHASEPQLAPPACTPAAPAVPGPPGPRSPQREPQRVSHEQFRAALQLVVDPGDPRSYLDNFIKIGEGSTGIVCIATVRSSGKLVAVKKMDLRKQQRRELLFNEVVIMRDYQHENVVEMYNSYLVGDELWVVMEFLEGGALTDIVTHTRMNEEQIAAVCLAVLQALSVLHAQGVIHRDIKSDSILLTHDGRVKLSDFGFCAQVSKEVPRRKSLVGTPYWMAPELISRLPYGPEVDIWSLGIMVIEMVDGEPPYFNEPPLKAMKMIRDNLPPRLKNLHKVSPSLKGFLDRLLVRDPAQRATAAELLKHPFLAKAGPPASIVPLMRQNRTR
Experimental: as §1

B-Raf(h) = target: T25, B-Raf(h) (Homo sapiens, UniProt P15056)
T25 construct: purchased Eurofins KinaseProfiler
Experimental: as §1

EGFR(h) = target: T26, EGFR(h) (Homo sapiens, UniProt P00533)
T26 construct: purchased Eurofins KinaseProfiler
Experimental: as §1

p70S6K(h) = target: T27, p70S6K(h) (Homo sapiens, UniProt P23443)
T27 construct: purchased Eurofins KinaseProfiler
Experimental: as §1

cSRC(h) = target: T28, cSRC(h) (Homo sapiens, UniProt P12931)
T28 construct: purchased Eurofins KinaseProfiler
Experimental: as §1

MST3(h) = target: T29, MST3(h) (Homo sapiens, UniProt Q9Y6E0)
T29 construct: purchased Eurofins KinaseProfiler
Experimental: as §1

PKA(h) = target: T30, PKA(h) (Homo sapiens, UniProt P17612)
T30 construct: purchased Eurofins KinaseProfiler
Experimental: as §1

CDK6/cyclinD3(h) = target: T31, CDK6/cyclinD3(h) (Homo sapiens, UniProt Q00534)
T31 construct: purchased Eurofins KinaseProfiler
Experimental: as §1

MSK2(h) = target: T32, MSK2(h) (Homo sapiens, UniProt O75676)
T32 construct: purchased Eurofins KinaseProfiler
Experimental: as §1

COc1ccc(CCc2cc(OC)c(OC)c(OC)c2)cc1O [Erianin]
activity at 0.1 µM (IKKα(h)): 108% | activity at 0.1 µM (JNK3(h)): 111% | activity at 0.1 µM (CDK4/cyclinD3(h)): 105% | activity at 0.1 µM (CaMKIV(h)): 91% | activity at 0.1 µM (JAK1(h)): 117% | activity at 0.1 µM (CDK9/cyclin T1(h)): 97% | activity at 0.1 µM (ROCK-I(h)): 125% | activity at 0.1 µM (ROCK-II(h)): 112% | activity at 0.1 µM (EGFR(L861Q)(h)): 93% | activity at 0.1 µM (MAPK2(h)): 104% | activity at 0.1 µM (AMPKα1(h)): 108% | activity at 0.1 µM (JAK3(h)): 98% | activity at 0.1 µM (EGFR(T790M,L858R)(h)): 120% | activity at 0.1 µM (mTOR(h)): 104% | activity at 0.1 µM (PAK1(h)): 109% | activity at 0.1 µM (PAK2(h)): 107% | activity at 0.1 µM (Pim-1(h)): 98% | activity at 0.1 µM (c-RAF(h)): 85% | activity at 0.1 µM (PAK3(h)): 99% | activity at 0.1 µM (MAPK1(h)): 92% | activity at 0.1 µM (MEK1(h)): 99% | activity at 0.1 µM (CDK2/cyclinA(h)): 94% | activity at 0.1 µM (FAK(h)): 89% | activity at 0.1 µM (PAK4(h)): 93% | activity at 0.1 µM (B-Raf(h)): 103% | activity at 0.1 µM (EGFR(h)): 105%

COc1cc2oc(-c3ccc(O)c(O)c3)cc(=O)c2c(O)c1OC [Cirsiliol]
activity at 10 µM (IKKα(h)): 102% | activity at 10 µM (p70S6K(h)): 95% | activity at 10 µM (CaMKIV(h); 10 µM): 93% | activity at 10 µM (cSRC(h)): 133% | activity at 10 µM (JAK1(h)): 99% | activity at 10 µM (CDK9/cyclin T1(h)): 98% | activity at 10 µM (MST3(h)): 103% | activity at 10 µM (PKA(h)): 100% | activity at 10 µM (EGFR(L861Q)(h); 10 µM): 108% | activity at 10 µM (CDK6/cyclinD3(h)): 101% | activity at 10 µM (MAPK2(h)): 114% | activity at 10 µM (EGFR(T790M,L858R)(h); 10 µM): 101% | activity at 10 µM (MSK2(h)): 108% | activity at 10 µM (PAK1(h)): 104% | activity at 10 µM (PAK2(h)): 111% | activity at 10 µM (Pim-1(h); 10 µM): 112% | activity at 10 µM (c-RAF(h); 10 µM): 104% | activity at 10 µM (MAPK1(h)): 103% | activity at 10 µM (MEK1(h)): 105% | activity at 10 µM (CDK2/cyclinA(h)): 91% | activity at 10 µM (PAK4(h)): 104% | activity at 10 µM (B-Raf(h); 10 µM): 104% | activity at 10 µM (EGFR(h)): 98%

C=C1C(=O)[C@]23[C@H](O)[C@H]1CC[C@H]2[C@@]12CO[C@]3(O)[C@@H](O)[C@@H]1C(C)(C)CC[C@@H]2O [Oridonin]
activity at 10 µM (IKKα(h)): 80% | activity at 10 µM (p70S6K(h)): 53% | activity at 10 µM (JNK3(h); 10 µM): 54% | activity at 10 µM (CDK4/cyclinD3(h); 10 µM): 109% | activity at 10 µM (cSRC(h)): 59% | activity at 10 µM (JAK1(h)): 75% | activity at 10 µM (CDK9/cyclin T1(h)): 59% | activity at 10 µM (ROCK-I(h); 10 µM): 86% | activity at 10 µM (MST3(h)): 74% | activity at 10 µM (PKA(h)): 108% | activity at 10 µM (ROCK-II(h); 10 µM): 88% | activity at 10 µM (CDK6/cyclinD3(h)): 69% | activity at 10 µM (MAPK2(h)): 82% | activity at 10 µM (AMPKα1(h); 10 µM): 75% | activity at 10 µM (JAK3(h); 10 µM): 89% | activity at 10 µM (mTOR(h); 10 µM): 81% | activity at 10 µM (MSK2(h)): 69% | activity at 10 µM (PAK1(h)): 110% | activity at 10 µM (PAK2(h)): 99% | activity at 10 µM (PAK3(h); 10 µM): 95% | activity at 10 µM (MAPK1(h)): 63% | activity at 10 µM (MEK1(h)): 92% | activity at 10 µM (CDK2/cyclinA(h)): 67% | activity at 10 µM (FAK(h); 10 µM): 76% | activity at 10 µM (PAK4(h)): 86% | activity at 10 µM (EGFR(h)): 91%
